Source: patent publication US20210047304A1, “Bromodomain Inhibitors” (AbbVie Inc., priority 2016, published 2021)

target: BRD4 (BDI_K57-E168) (Homo sapiens, UniProt O60885); test: TR-FRET bromodomain binding assay, BRD4 BDI

Compound | Ki
Cc1cc(F)cc(C)c1Oc1ccc(C(C)(C)O)cc1-c1cn(C)c(=O)cc1O[C@H]1CC[C@H](n2nccc2O)CC1 [Example 114, 5-[2-(4-fluoro-2,6-dimethylphenoxy)-5-(2-hydroxypropan-2-yl)phenyl]-4-{[trans-4-(5-hydroxy-1H-pyrazol-1-yl)cyclohexyl]oxy}-1-methylpyridin-2(1H)-one] | 4.66 µM
Cc1cccc(C)c1Oc1ccc(CN(C)C(N)=O)cc1-c1cn(C)c(=O)cc1O[C@H]1CC[C@H](NC(=O)C2(C)CC2)CC1 [Example 115, N-[trans-4-({5-[5-{[carbamoyl(methyl)amino]methyl}-2-(2,6-dimethylphenoxy)phenyl]-1-methyl-2-oxo-1,2-dihydropyridin-4-yl}oxy)cyclohexyl]-1-methylcyclopropane-1-carboxamide] | 2.92 µM
CC(=O)N([C@H](C)c1ccc(Oc2c(C)cccc2C)c(-c2cn(C)c(=O)cc2O[C@H]2CC[C@H](NC(=O)C3(C)CC3)CC2)c1)[C@@H](C)c1ccccc1 [Example 116, N-{trans-4-[(5-{5-[(1R)-1-{acetyl[(1S)-1-phenylethyl]amino}ethyl]-2-(2,6-dimethylphenoxy)phenyl}-1-methyl-2-oxo-1,2-dihydropyridin-4-yl)oxy]cyclohexyl}-1-methylcyclopropane-1-carboxamide] | > 13 µM
Cc1cc(F)cc(C)c1Oc1ccc(C(C)(C)O)cc1-c1cn(C)c(=O)cc1O[C@H]1CC[C@H](NC(=O)C(F)(F)F)CC1 [Example 117, 2,2,2-trifluoro-N-[trans-4-({5-[2-(4-fluoro-2,6-dimethylphenoxy)-5-(2-hydroxypropan-2-yl)phenyl]-1-methyl-2-oxo-1,2-dihydropyridin-4-yl}oxy)cyclohexyl]acetamide] | 3.57 µM
Cc1cc(F)cc(C)c1Oc1ccc(C(C)(C)O)cc1-c1cn(C)c(=O)cc1O[C@H]1CC[C@H](NC(=O)CC(C)(C)CO)CC1 [Example 118, N-[trans-4-({5-[2-(4-fluoro-2,6-dimethylphenoxy)-5-(2-hydroxypropan-2-yl)phenyl]-1-methyl-2-oxo-1,2-dihydropyridin-4-yl}oxy)cyclohexyl]-4-hydroxy-3,3-dimethylbutanamide] | 1.91 µM
Cc1cc(F)cc(C)c1Oc1ccc(C(C)(C)O)cc1-c1cn(C)c(=O)cc1O[C@H]1CC[C@H](NC(=O)CCC(C)(C)O)CC1 [Example 119, N-[trans-4-({5-[2-(4-fluoro-2,6-dimethylphenoxy)-5-(2-hydroxypropan-2-yl)phenyl]-1-methyl-2-oxo-1,2-dihydropyridin-4-yl}oxy)cyclohexyl]-4-hydroxy-4-methylpentanamide] | 2.81 µM
Cc1cc(F)cc(C)c1Oc1ccc(C(C)(C)O)cc1-c1cn(C)c(=O)cc1O[C@H]1CC[C@H](N2CC(C)(C)CC2=O)CC1 [Example 120, 4-{[trans-4-(4,4-dimethyl-2-oxopyrrolidin-1-yl)cyclohexyl]oxy}-5-[2-(4-fluoro-2,6-dimethylphenoxy)-5-(2-hydroxypropan-2-yl)phenyl]-1-methylpyridin-2(1H)-one] | 0.891 µM
Cc1cc(F)cc(C)c1Oc1ccc(C(C)(C)O)cc1-c1cn(C)c(=O)cc1O[C@H]1CC[C@H](N2NC(=O)CC2=O)CC1 [Example 121, 1-[trans-4-({5-[2-(4-fluoro-2,6-dimethylphenoxy)-5-(2-hydroxypropan-2-yl)phenyl]-1-methyl-2-oxo-1,2-dihydropyridin-4-yl}oxy)cyclohexyl]pyrazolidine-3,5-dione] | > 13 µM
Cc1cc(F)cc(C)c1Oc1ccc(C(C)(C)O)cc1-c1cn(C)c(=O)cc1O[C@H]1CC[C@H](NC(=O)N2CCOCC2)CC1 [Example 122, N-[trans-4-({5-[2-(4-fluoro-2,6-dimethylphenoxy)-5-(2-hydroxypropan-2-yl)phenyl]-1-methyl-2-oxo-1,2-dihydropyridin-4-yl}oxy)cyclohexyl]morpholine-4-carboxamide] | 3.67 µM
Cc1cc(F)cc(C)c1Oc1ccc(C(C)(C)O)cc1-c1cn(C)c(=O)cc1O[C@H]1CC[C@H](NC(=O)N2CCNC2=O)CC1 [Example 123, N-[trans-4-({5-[2-(4-fluoro-2,6-dimethylphenoxy)-5-(2-hydroxypropan-2-yl)phenyl]-1-methyl-2-oxo-1,2-dihydropyridin-4-yl}oxy)cyclohexyl]-2-oxoimidazolidine-1-carboxamide] | > 13 µM
Cc1cc(F)cc(C)c1Oc1ccc(C(C)(C)O)cc1-c1cn(C)c(=O)cc1O[C@H]1CC[C@H](N2C(=O)N[C@@H](C)C2=O)CC1 [Example 124, (5S)-3-[trans-4-({5-[2-(4-fluoro-2,6-dimethylphenoxy)-5-(2-hydroxypropan-2-yl)phenyl]-1-methyl-2-oxo-1,2-dihydropyridin-4-yl}oxy)cyclohexyl]-5-methylimidazolidine-2,4-dione] | > 13 µM

Results, then the molecule that gave them:

Ki | Compound
> 13 µM | Cc1cc(F)cc(C)c1Oc1ccc(C(C)(C)O)cc1-c1cn(C)c(=O)cc1O[C@H]1CC[C@H](N2C(=O)CNC2=O)CC1 [Example 125, 3-[trans-4-({5-[2-(4-fluoro-2,6-dimethylphenoxy)-5-(2-hydroxypropan-2-yl)phenyl]-1-methyl-2-oxo-1,2-dihydropyridin-4-yl}oxy)cyclohexyl]imidazolidine-2,4-dione]
8.85 µM | CCN1CC(=O)N([C@H]2CC[C@H](Oc3cc(=O)n(C)cc3-c3cc(C(C)(C)O)ccc3Oc3c(C)cc(F)cc3C)CC2)C1=O [Example 127, 1-ethyl-3-[trans-4-({5-[2-(4-fluoro-2,6-dimethylphenoxy)-5-(2-hydroxypropan-2-yl)phenyl]-1-methyl-2-oxo-1,2-dihydropyridin-4-yl}oxy)cyclohexyl]imidazolidine-2,4-dione]
2.11 µM | CNC(=O)N[C@H]1CC[C@H](Oc2cc(=O)n(C)cc2-c2cc(C(C)(C)O)ccc2Oc2c(C)cc(F)cc2C)CC1 [Example 128, N-[trans-4-({5-[2-(4-fluoro-2,6-dimethylphenoxy)-5-(2-hydroxypropan-2-yl)phenyl]-1-methyl-2-oxo-1,2-dihydropyridin-4-yl}oxy)cyclohexyl]-N′-methylurea]
3.19 µM | Cc1ccc(=O)n([C@H]2CC[C@H](Oc3cc(=O)n(C)cc3-c3cc(C(C)(C)O)ccc3Oc3c(C)cc(F)cc3C)CC2)n1 [Example 130, 2-[trans-4-({5-[2-(4-fluoro-2,6-dimethylphenoxy)-5-(2-hydroxypropan-2-yl)phenyl]-1-methyl-2-oxo-1,2-dihydropyridin-4-yl}oxy)cyclohexyl]-6-methylpyridazin-3(2H)-one]
6.32 µM | Cc1cc(F)cc(C)c1Oc1ccc(C(C)(C)O)cc1-c1cn(C)c(=O)cc1O[C@H]1CC[C@H](N2C(=O)N[C@H](C(C)C)C2=O)CC1 [Example 131, (5R)-3-[trans-4-({5-[2-(4-fluoro-2,6-dimethylphenoxy)-5-(2-hydroxypropan-2-yl)phenyl]-1-methyl-2-oxo-1,2-dihydropyridin-4-yl}oxy)cyclohexyl]-5-(propan-2-yl)imidazolidine-2,4-dione]
4.21 µM | Cc1cc(F)cc(C)c1Oc1ccc(C(C)(C)O)cc1-c1cn(C)c(=O)cc1O[C@H]1CC[C@H](N2C(=O)N[C@H](C)C2=O)CC1 [Example 132, (5R)-3-[trans-4-({5-[2-(4-fluoro-2,6-dimethylphenoxy)-5-(2-hydroxypropan-2-yl)phenyl]-1-methyl-2-oxo-1,2-dihydropyridin-4-yl}oxy)cyclohexyl]-5-methylimidazolidine-2,4-dione]
> 13 µM | CC=C1NC(=O)N([C@H]2CC[C@H](Oc3cc(=O)n(C)cc3-c3cc(C(C)(C)O)ccc3Oc3c(C)cc(F)cc3C)CC2)C1=O [Example 133, 5-ethylidene-3-[trans-4-({5-[2-(4-fluoro-2,6-dimethylphenoxy)-5-(2-hydroxypropan-2-yl)phenyl]-1-methyl-2-oxo-1,2-dihydropyridin-4-yl}oxy)cyclohexyl]imidazolidine-2,4-dione]
3.68 µM | COCCN1CC(=O)N([C@H]2CC[C@H](Oc3cc(=O)n(C)cc3-c3cc(C(C)(C)O)ccc3Oc3c(C)cc(F)cc3C)CC2)C1=O [Example 135, 3-[trans-4-({5-[2-(4-fluoro-2,6-dimethylphenoxy)-5-(2-hydroxypropan-2-yl)phenyl]-1-methyl-2-oxo-1,2-dihydropyridin-4-yl}oxy)cyclohexyl]-1-(2-methoxyethyl)imidazolidine-2,4-dione]
2.47 µM | Cc1cc(F)cc(C)c1Oc1ccc(C(C)(C)O)cc1-c1cn(C)c(=O)cc1O[C@H]1CC[C@H](N2C(=O)NC3(CC3)C2=O)CC1 [Example 136, 6-[trans-4-({5-[2-(4-fluoro-2,6-dimethylphenoxy)-5-(2-hydroxypropan-2-yl)phenyl]-1-methyl-2-oxo-1,2-dihydropyridin-4-yl}oxy)cyclohexyl]-4,6-diazaspiro[2.4]heptane-5,7-dione]
12.8 µM | Cc1cc(F)cc(C)c1Oc1ccc(C(C)(C)O)cc1-c1cn(C)c(=O)cc1O[C@H]1CC[C@H](N2C(=O)[C@H]3CCCN3C2=O)CC1 [Example 138, (7aR)-2-[trans-4-({5-[2-(4-fluoro-2,6-dimethylphenoxy)-5-(2-hydroxypropan-2-yl)phenyl]-1-methyl-2-oxo-1,2-dihydropyridin-4-yl}oxy)cyclohexyl]tetrahydro-1H-pyrrolo[1,2-c]imidazole-1,3(2H)-dione]
0.645 µM | Cc1cc(F)cc(C)c1Oc1ccc(C(C)(C)O)cc1-c1cn(C)c(=O)cc1O[C@H]1CC[C@H](NC(=O)C(C)(C)N)CC1 [Example 139, N-[trans-4-({5-[2-(4-fluoro-2,6-dimethylphenoxy)-5-(2-hydroxypropan-2-yl)phenyl]-1-methyl-2-oxo-1,2-dihydropyridin-4-yl}oxy)cyclohexyl]-2-methylalaninamide]
11.2 µM | Cc1cc(F)cc(C)c1Oc1ccc(C(C)(C)O)cc1-c1cn(C)c(=O)cc1O[C@H]1CC[C@H](N2C(=O)NC(C)(C)C2=O)CC1 [Example 140, 3-[trans-4-({5-[2-(4-fluoro-2,6-dimethylphenoxy)-5-(2-hydroxypropan-2-yl)phenyl]-1-methyl-2-oxo-1,2-dihydropyridin-4-yl}oxy)cyclohexyl]-5,5-dimethylimidazolidine-2,4-dione]
4.09 µM | Cc1cc(F)cc(C)c1Oc1ccc(C(C)(C)O)cc1-c1cn(C)c(=O)cc1O[C@H]1CC[C@H](n2ncccc2=O)CC1 [Example 141, 2-[trans-4-({5-[2-(4-fluoro-2,6-dimethylphenoxy)-5-(2-hydroxypropan-2-yl)phenyl]-1-methyl-2-oxo-1,2-dihydropyridin-4-yl}oxy)cyclohexyl]pyridazin-3(2H)-one]
